Reference: the NIST ThermoML archive (doi:10.1021/je800497u)

Experiments:
[1] = 101 kPa, Liquid
[2] = xn = mol fraction of the nth substance listed; settings: 101 kPa, Liquid

CCCO [propan-1-ol]
[1]
Settings | mass density [kg/m3] | viscosity [mPa·s]
293.15 K | 803.5 | 2.272
298.15 K | 799.6 | 1.966

CCCCCO [pentan-1-ol]
[1]
Settings | mass density [kg/m3] | viscosity [mPa·s]
293.15 K | 814.6 | 4.029
298.15 K | 811 | 3.494

CCCCCCCO [heptan-1-ol]
[1]
Settings | mass density [kg/m3] | viscosity [mPa·s]
293.15 K | 822.2 | 7.104
298.15 K | 818.7 | 5.993

CCCCCCCCCCCO [1-undecanol] + CCCCCO
[2]
Settings | mass density, 293.15 K [kg/m3] | mass density, 298.15 K [kg/m3] | viscosity, 293.15 K [mPa·s] | viscosity, 298.15 K [mPa·s]
x2 = 0 | 832.5 | 829 | 17.18 | 14.02
x2 = 0.1218 | 830.3 | 826.9 | 15.92 | 13.04
x2 = 0.2312 | 829.1 | 825.7 | 13.84 | 11.4
x2 = 0.3167 | 828 | 824.6 | 12.28 | 10.14
x2 = 0.4002 | 826.9 | 823.5 | 11.17 | 9.277
x2 = 0.5076 | 825.2 | 821.8 | 9.516 | 7.956
x2 = 0.6003 | 823.7 | 820.3 | 8.205 | 6.902
x2 = 0.6977 | 822 | 818.5 | 6.943 | 5.846
x2 = 0.7982 | 819.8 | 816.3 | 5.804 | 4.908
x2 = 0.8954 | 817.5 | 813.9 | 4.87 | 4.16

CCCCCCCO [heptan-1-ol] + CCCCCCCCCO
[2], x1 = 1
Settings | mass density [kg/m3] | viscosity [mPa·s]
293.15 K | 822.2 | 7.104
298.15 K | 818.7 | 5.993

CCCCCCCCCCCO [1-undecanol] + CCCO
[2]
Settings | mass density, 293.15 K [kg/m3] | mass density, 298.15 K [kg/m3] | viscosity, 293.15 K [mPa·s] | viscosity, 298.15 K [mPa·s]
x2 = 0 | 832.5 | 829 | 17.18 | 14.02
x2 = 0.1283 | 830.7 | 827.3 | 15.08 | 12.37
x2 = 0.2079 | 829.6 | 826.2 | 13.44 | 11.11
x2 = 0.3145 | 827.9 | 824.4 | 11.56 | 9.558
x2 = 0.4057 | 826.1 | 822.6 | 10.06 | 8.394
x2 = 0.5075 | 824 | 820.5 | 8.321 | 6.998
x2 = 0.6096 | 821.3 | 817.7 | 6.814 | 5.804
x2 = 0.6937 | 818.7 | 815.1 | 5.634 | 4.823
x2 = 0.7922 | 815 | 811.4 | 4.399 | 3.808
x2 = 0.8907 | 810.3 | 806.5 | 3.274 | 2.857

CCCCCCCCCCCO [1-undecanol]
[1]
Settings | mass density [kg/m3] | viscosity [mPa·s]
293.15 K | 832.5 | 17.18
298.15 K | 829 | 14.02

CCCCCO [pentan-1-ol] + CCCCCCCO
[2], x1 = 1
Settings | mass density [kg/m3] | viscosity [mPa·s]
293.15 K | 814.6 | 4.029
298.15 K | 811 | 3.494

CCCO [propan-1-ol] + CCCCCCCCCO
[2], x1 = 1
Settings | mass density [kg/m3] | viscosity [mPa·s]
293.15 K | 803.5 | 2.272
298.15 K | 799.6 | 1.966

CCCCCCCCCO [nonan-1-ol]
[1]
Settings | mass density [kg/m3] | viscosity [mPa·s]
293.15 K | 827.9 | 11.68
298.15 K | 824.4 | 9.671

CCCCCCCO [heptan-1-ol] + CCCCCO
[2]
Settings | mass density, 293.15 K [kg/m3] | mass density, 298.15 K [kg/m3] | viscosity, 293.15 K [mPa·s] | viscosity, 298.15 K [mPa·s]
x2 = 0 | 822.2 | 818.7 | 7.104 | 5.993
x2 = 0.123 | 821.4 | 818 | 6.696 | 5.692
x2 = 0.2117 | 820.8 | 817.4 | 6.374 | 5.408
x2 = 0.3131 | 820.2 | 816.7 | 6.079 | 5.158
x2 = 0.4177 | 819.4 | 815.9 | 5.758 | 4.899
x2 = 0.5088 | 818.8 | 815.3 | 5.421 | 4.652
x2 = 0.5897 | 818.2 | 814.7 | 5.177 | 4.431
x2 = 0.6996 | 817.3 | 813.8 | 4.887 | 4.189
x2 = 0.7885 | 816.5 | 812.9 | 4.651 | 3.997
x2 = 0.8909 | 815.6 | 812 | 4.287 | 3.717

CCCO [propan-1-ol] + CCCCCCCCCCCO
[2], x1 = 1
Settings | mass density [kg/m3] | viscosity [mPa·s]
293.15 K | 803.5 | 2.272
298.15 K | 799.6 | 1.966
